From US20220257595A1, “MACITENTAN FOR USE IN TREATING PORTOPULMONARY HYPERTENSION” (ACTELION PHARMACEUTICALS LTD, priority 2019, published 2022)

Tested on: patients with PoPH
Experiment: PORTICO safety: treatment-emergent AEs, SAEs, AESIs, deaths, discontinuations
Format: in vivo
Text: For the evaluation of treatment-emergent safety endpoints in the DB phase, the observation period for each individual subject started at the time of the first administration of macitentan or placebo and ended with the start of OL treatment or 30 days after DB treatment discontinuation (whichever occurred first). The safety variables listed below apply to the DB treatment-emergent period and the macitentan treatment-emergent period. The DB treatment-emergent period was defined as the period from the DB treatment start date up to the EOT-DB+30 days or to the EOT-DB for patients entering OL. The macitentan treatment-emergent period was defined as the period from the first intake of macitentan up to end of macitentan treatment (EOMT)+30 days. EOMT was defined as EOT-DB (for patient who received macitentan only in the DB period) or EOT-OL when applicable. For patients entering OLE, the EOMT is EOT-OL. • Treatment-emergent AEs • Treatment-emergent deaths • Treatment-emergent serious adverse events (SAEs) • AEs leading to premature discontinuation of study treatment • Occurrence of post-baseline LFT (ALT and/or AST) abnormalities, classified as: • ≥3×ULN; • ≥5×ULN; • ≥8×ULN; • ≥3×ULN and <5×ULN; • […] and <8×ULN. • Occurrence of post-baseline ALT and/or AST abnormality 3×ULN and concomitant (i.e., at the same time) total bilirubin ≥2×ULN • Occurrence of post-baseline ALT and/or AST abnormality ≥3×ULN and concomitant (i.e., at the same time) total bilirubin ≥2×ULN and increased as compared to baseline • Occurrence of hemoglobin abnormalities, classified as: • ≤80 g/L, • >80 and ≤100 g/L, • decrease from baseline ≥20 g/L and <50 g/L, • decrease from baseline ≥50 g/L, • <100 g/L and concurrent (i.e., at the same time) decrease from baseline ≥20 g/L. • Other treatment-emergent marked laboratory abnormalities • Change from baseline/macitentan baseline to EOT-DB/EOMT in vital signs • Change from baseline/macitentan baseline to EOT-DB/EOMT in laboratory variables • Change from baseline/macitentan baseline to EOT-DB/EOMT in Child-Pugh classification • Change from baseline/macitentan baseline to EOT-DB/EOMT in MELD score
(i) Adverse events: All AEs occurring after study start (i.e., signing of informed consent) and up to 30 days after study treatment discontinuation were required to be recorded. AEs still ongoing more than 30 days after study treatment discontinuation were required to be followed up until they were no longer considered clinically relevant.
(ii) Serious adverse events, including associated with study design or protocol-mandated procedures: During the screening period, all SAEs occurring after study start (i.e., signing of informed consent) were required to be recorded (whether considered associated or not associated to study design or study-mandated procedures). All SAEs, regardless of investigator-attributed causal relationship, occurring during the treatment period up to the end of the 30-day follow up period, were required to be reported. SAEs still ongoing at the EOS visit were required to be followed up until resolution or stabilization, or until the event outcome was provided, e.g., death. New SAEs occurring after the 30-day follow-up period were required to be reported within 24 hours.
In addition, the following adverse events of special interest (AESIs) were analyzed: • “Edema and fluid retention”
Any treatment-emergent AE with PT listed in the Standardised MedDRA Query (SMQ) “Haemodynamic oedema, effusions and fluid overload (SMQ)” or with PT equal to “Pulmonary congestion” defined in the latest available MedDRA version, with the exception of PTs containing “site”. • “Anemia”

[1] = DB phase, Safety set, 10 mg, N = 43
[2] = DB phase, macitentan group (6 patients)
[3] = DB phase, macitentan group, 7 patients
[4] = OL phase, Macitentan treated set, N = 84
[5] = macitentan DB + OL phase, Macitentan treated set, N = 84

CCCNS(=O)(=O)Nc1ncnc(OCCOc2ncc(Br)cn2)c1-c1ccc(Br)cc1 [macitentan, N-[5-(4-Bromophenyl)-6-[2-[(5-bromo-2-pyrimidinyl)oxy]ethoxy]-4-pyrimidinyl]-N′-propylsulfamide] was tested, and the “AEs that occurred more frequently than in the placebo group” value (DB phase) was “peripheral edema/peripheral swelling, bronchitis and decreased hemoglobin/anemia”, the Deaths (DB phase) was “no deaths” and the “AE leading to premature discontinuation of study treatment, Alveolitis” value [1] was 1 (2.3) n (%). For the same compound, the “AE leading to premature discontinuation of study treatment, Anaemia” value [1] was 1 (2.3) n (%), the “AE leading to premature discontinuation of study treatment, Hypersensitivity” value [1] was 1 (2.3) n (%) and the “AE leading to premature discontinuation of study treatment, Pulmonary arterial hypertension” value [1] was 1 (2.3) n (%). For the same compound, the “AE of special interest Anemia, Pancytopenia” value [1] was 0 n (%), the “AE of special interest Hepatic disorders, Blood bilirubin increased” value [1] was 0 n (%) and the “AE of special interest Hepatic disorders, Gamma-glutamyltransferase increased” value [1] was 0 n (%). The “Subjects with at least one AE” value [1] was 36 (83.7) n (%), the “Subjects with at least one AE leading to study drug discontinuation” value [1] was 4 (9.3) n (%) and the “Subjects with at least one Drug-Related AE” value [1] was 19 (44.2) n (%). The “Subjects with at least one Drug-Related serious AE” value [1] was 5 (11.6) n (%), the “Subjects with at least one Fatal serious AE” value [1] was 0 n (%) and the “Subjects with at least one Serious AE” value [1] was 9 (20.9) n (%). The “Subjects with at least one Severe AE” value [1] was 7 (16.3) n (%), the “Treatment-emergent AE, Abdominal pain” value [1] was 2 (4.7) n (%) and the “Treatment-emergent AE, Acute kidney injury” value [1] was 2 (4.7) n (%). The “Treatment-emergent AE, Back pain” value [1] was 2 (4.7) n (%), the “Treatment-emergent AE, Bronchitis” value [1] was 4 (9.3) n (%) and the “Treatment-emergent AE, Cough” value [1] was 0 n (%). The “Treatment-emergent AE, Diarrhoea” value [1] was 1 (2.3) n (%), the “Treatment-emergent AE, Dizziness” value [1] was 2 (4.7) n (%) and the “Treatment-emergent AE, Dry mouth” value [1] was 1 (2.3) n (%). For the same compound, the “Treatment-emergent AE, Dyspnoea” value [1] was 1 (2.3) n (%), the “Treatment-emergent AE, Fall” value [1] was 2 (4.7) n (%) and the “Treatment-emergent AE, Foot fracture” value [1] was 1 (2.3) n (%). For the same compound, the “Treatment-emergent AE, Headache” value [1] was 7 (16.3) n (%), the “Treatment-emergent AE, Hypokalaemia” value [1] was 2 (4.7) n (%) and the “Treatment-emergent AE, Hypotension” value [1] was 2 (4.7) n (%). For the same compound, the “Treatment-emergent AE, Muscle spasms” value [1] was 0 n (%), the “Treatment-emergent AE, Nausea” value [1] was 1 (2.3) n (%) and the “Treatment-emergent AE, Pain in extremity” value [1] was 2 (4.7) n (%). The “Treatment-emergent AE, Presyncope” value [1] was 2 (4.7) n (%), the “Treatment-emergent AE, Rhinitis” value [1] was 2 (4.7) n (%) and the “Treatment-emergent AE, Right ventricular failure” value [1] was 3 (7.0) n (%). The “Treatment-emergent AE, Tachycardia” value [1] was 2 (4.7) n (%), the “Treatment-emergent AE, Urinary tract infection” value [1] was 2 (4.7) n (%) and the “Treatment-emergent AE, Viral upper respiratory tract infection” value [1] was 2 (4.7) n (%). The “Treatment-emergent SAE, Acute kidney injury” value [1] was 1 (2.3) n (%), the “Treatment-emergent SAE, Alveolitis” value [1] was 1 (2.3) n (%) and the “Treatment-emergent SAE, Aneurysm repair” value [1] was 0 n (%). The “Treatment-emergent SAE, Ascites” value [1] was 1 (2.3) n (%), the “Treatment-emergent SAE, Asthma” value [1] was 1 (2.3) n (%) and the “Treatment-emergent SAE, Atrial fibrillation” value [1] was 1 (2.3) n (%). For the same compound, the “Treatment-emergent SAE, Fluid overload” value [1] was 1 (2.3) n (%), the “Treatment-emergent SAE, Haemoptysis” value [1] was 1 (2.3) n (%) and the “Treatment-emergent SAE, Hepatic encephalopathy” value [1] was 1 (2.3) n (%). The “Treatment-emergent SAE, Hepatocellular carcinoma” value [1] was 1 (2.3) n (%), the “Treatment-emergent SAE, Hypersensitivity” value [1] was 1 (2.3) n (%) and the “Treatment-emergent SAE, Ileus” value [1] was 1 (2.3) n (%). The “Treatment-emergent SAE, Left ventricular failure” value [1] was 1 (2.3) n (%), the “Treatment-emergent SAE, Localised infection” value [1] was 0 n (%) and the “Treatment-emergent SAE, Localised oedema” value [1] was 1 (2.3) n (%). For the same compound, the “Treatment-emergent SAE, Lung infection” value [1] was 1 (2.3) n (%), the “Treatment-emergent SAE, Oedema peripheral” value [1] was 1 (2.3) n (%) and the “Treatment-emergent SAE, Presyncope” value [1] was 1 (2.3) n (%). For the same compound, the “Treatment-emergent SAE, Pulmonary arterial hypertension” value [1] was 1 (2.3) n (%), the “Treatment-emergent SAE, Pulmonary toxicity” value [1] was 1 (2.3) n (%) and the “Treatment-emergent SAE, Right ventricular failure” value [1] was 2 (4.7) n (%). For the same compound, the “Treatment-emergent SAE, Syncope” value [1] was 1 (2.3) n (%), the “Treatment-emergent SAE, Troponin I increased” value [1] was 1 (2.3) n (%) and the “Treatment-emergent SAE, Urosepsis” value [1] was 1 (2.3) n (%). For the same compound, the “Treatment-emergent SAE, Vascular procedure complication” value [1] was 0 n (%), the “Anemia AE cases leading to discontinuation of study treatment” value (DB phase, macitentan group) was 1 case and the “Edema/fluid retention SAEs (in one patient: peripheral edema, localized edema, fluid overload)” value (DB phase, macitentan group) was 3 SAEs. For the same compound, the “Patients who discontinued treatment due to AEs” value (DB phase, macitentan group) was 4 patients, the “Patients who had SAEs” value (DB phase, macitentan group) was 20.9% and the “Patients with hepatic disorder SAEs” value (DB phase, macitentan group) was 3 patients. The “Patients with anemia AEs” value [2] was 14.0%, the “Patients with hepatic disorder AEs” value [2] was 14.0% and the “Patients with edema and fluid retention AEs” value (DB phase, macitentan group (13 patients)) was 30.2%. For the same compound, the “Peripheral edema considered related to study treatment” value (DB phase, macitentan group, 4 patients) was 9.3%, the “Headache considered related to study treatment” value [3] was 16.3% and the “Patients with severe AEs” value [3] was 16.3%. For the same compound, the “Deaths considered related to macitentan treatment by the investigator” value (OL and OLE) was “None of the deaths were considered by the investigator to be related”, the Patients who died (OL phase) was 4 patients and the “Reason for death, Hepatocellular Carcinoma” value [4] was 1 (1.2) n (%). The “Reason for death, Pneumonia” value [4] was 1 (1.2) n (%), the “Reason for death, Pulmonary Arterial Hypertension” value [4] was 1 (1.2) n (%) and the “Reason for death, Subdural Haematoma” value [4] was 1 (1.2) n (%). For the same compound, the Total deaths [4] was 4 (4.8) n (%), the “Macitentan-treated patients who died” value (across OL phase (and after end of its follow-up) and ongoing OLE phase) was 7 patients and the “AE leading to premature discontinuation of study treatment, Alveolitis” value [5] was 1 (1.2) n(%). The “AE leading to premature discontinuation of study treatment, Anaemia” value [5] was 2 (2.4) n(%), the “AE leading to premature discontinuation of study treatment, Ascites” value [5] was 1 (1.2) n(%) and the “AE leading to premature discontinuation of study treatment, Diarrhoea” value [5] was 1 (1.2) n(%). For the same compound, the “AE leading to premature discontinuation of study treatment, Hypersensitivity” value [5] was 1 (1.2) n(%), the “AE leading to premature discontinuation of study treatment, Liver function test increased” value [5] was 1 (1.2) n(%) and the “AE leading to premature discontinuation of study treatment, Oedema peripheral” value [5] was 2 (2.4) n(%). For the same compound, the “AE leading to premature discontinuation of study treatment, Pneumonia” value [5] was 1 (1.2) n(%), the “AE leading to premature discontinuation of study treatment, Pulmonary arterial hypertension” value [5] was 1 (1.2) n(%) and the “AEs leading to premature discontinuation of study treatment, Subjects with at least one AE” value [5] was 10 (11.9) n(%). For the same compound, the “AEs of special interest Anemia, Anaemia postoperative” value [5] was 1 (1.2) n (%), the “AEs of special interest Anemia, Haematocrit decreased” value [5] was 1 (1.2) n (%) and the “AEs of special interest Anemia, Subjects with atleast one AE” value [5] was 22 (26.2) n (%). The “AEs of special interest Edema and fluid retention, Fluid overload” value [5] was 1 (1.2) n (%), the “AEs of special interest Edema and fluid retention, Fluid retention” value [5] was 1 (1.2) n (%) and the “AEs of special interest Edema and fluid retention, Generalised oedema” value [5] was 1 (1.2) n (%). For the same compound, the “AEs of special interest Edema and fluid retention, Joint swelling” value [5] was 1 (1.2) n (%), the “AEs of special interest Edema and fluid retention, Localised oedema” value [5] was 1 (1.2) n (%) and the “AEs of special interest Edema and fluid retention, Peripheral swelling” value [5] was 2 (2.4) n (%). For the same compound, the “AEs of special interest Edema and fluid retention, Subjects with atleast one AE” value [5] was 26 (31.0) n (%), the “AEs of special interest Edema and fluid retention, Swelling” value [5] was 1 (1.2) n (%) and the “AEs of special interest Hepatic disorders, Ammonia increased” value [5] was 2 (2.4) n (%).
